Values quoted from earlier work as cited in patent publication US20090060993A1, “SOLID PHARMACEUTICAL COMPOSITION FOR ENHANCED DELIVERY OF COENZYME Q-10 AND UBIQUINONES” (priority 2007, published 2009).

Conditions: humans

For COC1=C(OC)C(=O)C(C/C=C(\C)CC/C=C(\C)CC/C=C(\C)CC/C=C(\C)CC/C=C(\C)CC/C=C(\C)CC/C=C(\C)CC/C=C(\C)CC/C=C(\C)CCC=C(C)C)=C(C)C1=O [coenzyme Q-10, ubidecarenone], the total absorption is listed as “less than 10%”.
